The text below walks through data of article PMC9926234, “Iterative computational design and crystallographic screening identifies potent inhibitors targeting the Nsp3 macrodomain of SARS-CoV-2” (Proceedings of the National Academy of Sciences of the …, 2023).

For test [1], the target named is T1, SARS-CoV-2 NSP3 Mac1 (Severe acute respiratory syndrome coronavirus 2, UniProt P0DTD1). The test can be described thus: biochemical. The format is binding. To be noted: for IC50: read-out: IC50; for Ki: read-out: Ki***.
For test [2], the target named is T1, SARS-CoV-2 NSP3 Mac1. The format is binding. Conditions: for 1-BDC (PanDDA): 1 minus background density correction; for 1-BDC (PanDDA) / Refined occupancy: crystal soaking of Mac1; for Refined occupancy: ligand occupancy after refinement (phenix.refine).
The test system of test [3] is SARS-CoV-2 NSP3 Mac1. In words: Overall hit call (binding in crystallographic soaking or the HTRF-based binding assay). The text has this:
Supplement pnas.2212931120.sd01.xlsx, sheet "Compound Summary" | column: HIT*

The mark [4] stands for this setting: HTRF ADPr-conjugated peptide displacement.
[5] abbreviates: PanDDA 1-BDC of the event, compound stock 100 mM, Echo dispense volume 80 nl.
The mark [6] stands for this setting: PanDDA event map 1-BDC, crystal soak, Compound_concentration 100 mM, PanDDA run dmso_34 or nohits_35 per dataset.
[7] abbreviates: PanDDA event map, crystal soak, Compound_concentration 100 mM, Echo_dispense_volume 40 nl.
Where [8] appears, read: crystal soak, Compound_concentration 100 mM, Echo dispense 40 nl, PanDDA run dmso_34 or nohits_35 per dataset.
Where [9] appears, read: crystal soak, Compound_concentration 100 mM, Echo_dispense_volume 40 nl, PanDDA run (background map) dmso_34, nohits_35 or nohits_62.
The mark [10] stands for this setting: crystal soak, compound stock 100 mM, Echo dispense volume 80 nl.
Where [11] appears, read: PanDDA event map background density correction, crystal soak, compound concentration 100 mM.
The mark [12] stands for this setting: ligand modeled in the crystal structure, crystal soak, compound concentration 100 mM.
The mark [13] stands for this setting: ligand modeled in structure, compound stock 100 mM, Echo dispense volume 80 nl.

One may read the IC50 as the point on the concentration scale where inhibition reaches its midpoint. As usually defined, the Ki is a measure of affinity in units of concentration, obtained from inhibition or displacement.

Structures are written as SMILES. “And” between values parts separate entries of the source, which are not always exact repeats. Equal values may be shown once. Read-outs that look alike come from different tables or passages of the source.

As to `O=C(O)C1(F)CN(c2ncnc3[nH]c4cc(F)ccc4c23)CC1C1CC1` (stereo not drawn) [LL123_0032], at SARS-CoV-2 NSP3 Mac1 [1] (setting [4]), the IC50 came out at 41.8 µM. Also, the Ki at SARS-CoV-2 NSP3 Mac1 [1] came out at 36.4 µM. The 1-BDC at SARS-CoV-2 NSP3 Mac1 [2] (setting [5]) is recorded as 0.14; on SARS-CoV-2 NSP3 Mac1 [2] (setting [6]) it was 0.1; at SARS-CoV-2 NSP3 Mac1 [2] (setting [7]) it was 0.12. The “1-BDC (PanDDA)” value on SARS-CoV-2 NSP3 Mac1 [2] (PanDDA event map) turned out to be 0.12. For the same compound, the “PanDDA hit?” value on SARS-CoV-2 NSP3 Mac1 [2] (setting [8]), at SARS-CoV-2 NSP3 Mac1 [2] (setting [9]) and on SARS-CoV-2 NSP3 Mac1 [2] (setting [10]) was “TRUE” each time. In addition, the “Modeled?” value at SARS-CoV-2 NSP3 Mac1 [2] (ligand modeled, crystal soak, Compound_concentration 100 mM, Echo_dispense_volume 40 nl) is “TRUE”. For the same compound, the Refined occupancy at SARS-CoV-2 NSP3 Mac1 [2] is recorded as 24. The “HIT*” value in the test with SARS-CoV-2 NSP3 Mac1 [3] is “Y”.
Turning to `O=C(NC1c2cccc(O)c2CC1C(=O)O)c1ccc2[nH]ccc2c1` (stereo not drawn) [Z8539_2004], at SARS-CoV-2 NSP3 Mac1 [1] (setting [4]), the 50% inhibitory concentration (IC50) stood at 7.2 µM. At SARS-CoV-2 NSP3 Mac1 [1], the Ki is 6.3 µM. Further, the 1-BDC at SARS-CoV-2 NSP3 Mac1 [2] (setting [11]) is 0.41 and 0.22. The “1-BDC (PanDDA)” value at SARS-CoV-2 NSP3 Mac1 [2] (PanDDA event map) is 0.22. Besides, the “Modeled?” value at SARS-CoV-2 NSP3 Mac1 [2] (setting [12]) was “TRUE”. Further, the Refined occupancy at SARS-CoV-2 NSP3 Mac1 [2] was found to be 44. Also, the “HIT*” value in the test on SARS-CoV-2 NSP3 Mac1 [3] is reported as “Y”.
`Cl.O=C(O)C1CN(c2ncnc3[nH]c4cc(F)ccc4c23)CCO1` (stereo not drawn) [LL114_0033]: the 50% inhibitory concentration (IC50) on SARS-CoV-2 NSP3 Mac1 [1] (setting [4]) turned out to be 40.4 µM. Moreover, the inhibition constant (Ki) at SARS-CoV-2 NSP3 Mac1 [1] came to 35.2 µM. Besides, the 1-BDC on SARS-CoV-2 NSP3 Mac1 [2] (PanDDA 1-BDC of the event, compound stock 100 mM, Echo dispense volume 40 nl) came out at 0.15; at SARS-CoV-2 NSP3 Mac1 [2] (setting [6]) it was 0.15. Moreover, the “1-BDC (PanDDA)” value at SARS-CoV-2 NSP3 Mac1 [2] (PanDDA event map) is recorded as 0.15. The “PanDDA hit?” value on SARS-CoV-2 NSP3 Mac1 [2] (setting [8]) is reported as “TRUE”; on SARS-CoV-2 NSP3 Mac1 [2] (crystal soak, compound stock 100 mM, Echo dispense volume 40 nl), “TRUE”. Besides, the “Modeled?” value at SARS-CoV-2 NSP3 Mac1 [2] (ligand modeled in structure, compound stock 100 mM, Echo dispense volume 40 nl) is on record as “TRUE”. At SARS-CoV-2 NSP3 Mac1 [2], this compound came in with a Refined occupancy of 30. The “HIT*” value in the test with SARS-CoV-2 NSP3 Mac1 [3] is “Y”.
With `Cn1ncc2ncnc(NS(=O)(=O)Cc3ccc(CC#N)cc3)c21` [Z6742], at SARS-CoV-2 NSP3 Mac1 [1] (setting [4]), the half-maximal inhibitory concentration (IC50) came out at 42.4 µM. Also, the Ki at SARS-CoV-2 NSP3 Mac1 [1] worked out at 36.9 µM. Also, the “HIT*” value in the test on SARS-CoV-2 NSP3 Mac1 [3] was “Y”.
Turning to `O=C(NCc1c(C(=O)O)[nH]c2ccccc12)c1ccc2[nH]c(O)nc2c1` [Z8539_2006], the IC50 on SARS-CoV-2 NSP3 Mac1 [1] (setting [4]) was determined as 15.8 µM. Moreover, the inhibitory constant (Ki) at SARS-CoV-2 NSP3 Mac1 [1] amounted to 13.7 µM. On SARS-CoV-2 NSP3 Mac1 [2] (setting [11]), this compound had a 1-BDC of 0.05. Further, the “1-BDC (PanDDA)” value at SARS-CoV-2 NSP3 Mac1 [2] (PanDDA event map) stood at 0.05. At SARS-CoV-2 NSP3 Mac1 [2] (setting [12]), the “Modeled?” value is recorded as “TRUE”. At SARS-CoV-2 NSP3 Mac1 [2], this compound yielded a Refined occupancy of 10. Also, the “HIT*” value with SARS-CoV-2 NSP3 Mac1 [3] is on record as “Y”.
For the compound `O=C(O)CC1CN(c2ncnc3[nH]c4cc(F)ccc4c23)CC2(CCC2)O1` (stereo not drawn) [LL114_0024], the IC50 is 19.7 µM at SARS-CoV-2 NSP3 Mac1 [1] (setting [4]); 19.6 µM and 20 µM on SARS-CoV-2 NSP3 Mac1 [1] (HTRF ADPr-peptide displacement from SARS-CoV-2 Mac1). In addition, the Ki at SARS-CoV-2 NSP3 Mac1 [1] came to 17.1 µM. In addition, the 1-BDC on SARS-CoV-2 NSP3 Mac1 [2] (setting [5]) was determined as 0.11; at SARS-CoV-2 NSP3 Mac1 [2] (setting [6]), 0.06. Further, the “1-BDC (PanDDA)” value on SARS-CoV-2 NSP3 Mac1 [2] (PanDDA event map) is 0.11. The “PanDDA hit?” value at SARS-CoV-2 NSP3 Mac1 [2] (setting [8]) and on SARS-CoV-2 NSP3 Mac1 [2] (setting [10]) was “TRUE” throughout. Further, at SARS-CoV-2 NSP3 Mac1 [2] (setting [13]), the “Modeled?” value is “TRUE”. This compound also gave a Refined occupancy at SARS-CoV-2 NSP3 Mac1 [2] of 22. Also, in the test on SARS-CoV-2 NSP3 Mac1 [3], the “HIT*” value is recorded as “Y”.
In the case of `O=C(NC1C=CC(C(=O)O)C1)c1ncnc2sccc12` (stereo not drawn) [Z6645], on SARS-CoV-2 NSP3 Mac1 [1] (setting [4]), the IC50 came to 69.4 µM. The Ki at SARS-CoV-2 NSP3 Mac1 [1] came out at 60.4 µM. In addition, the “HIT*” value with SARS-CoV-2 NSP3 Mac1 [3] is given as “Y”.
As to `O=C(NCc1c(C(=O)O)[nH]c2ccccc12)c1ccc2[nH]cnc2c1` [Z8539_2005], the concentration for half-maximal inhibition (IC50) on SARS-CoV-2 NSP3 Mac1 [1] (setting [4]) stood at 24.5 µM. In addition, on SARS-CoV-2 NSP3 Mac1 [1], the Ki is 21.3 µM. Moreover, the 1-BDC was 0.21 and 0.19 at SARS-CoV-2 NSP3 Mac1 [2] (setting [11]); 0.24 on SARS-CoV-2 NSP3 Mac1 [2] (setting [7]). Moreover, the “1-BDC (PanDDA)” value on SARS-CoV-2 NSP3 Mac1 [2] (PanDDA event map) was 0.19. Also, on SARS-CoV-2 NSP3 Mac1 [2] (setting [9]), the “PanDDA hit?” value is “TRUE”. The “Modeled?” value on SARS-CoV-2 NSP3 Mac1 [2] (setting [12]) is “TRUE”. This compound also returned a Refined occupancy on SARS-CoV-2 NSP3 Mac1 [2] of 38. For the same compound, in the test on SARS-CoV-2 NSP3 Mac1 [3], the “HIT*” value is “Y”.
As for `O=C(O)[C@H]1[C@@H]2CN(c3ncnc4[nH]c5cc(F)ccc5c34)CC[C@@H]21` [LL114_0037], at SARS-CoV-2 NSP3 Mac1 [1] (setting [4]), the concentration for half-maximal inhibition (IC50) came out at 37.6 µM. The inhibition constant Ki at SARS-CoV-2 NSP3 Mac1 [1] was 32.7 µM. Besides, in the test with SARS-CoV-2 NSP3 Mac1 [3], the “HIT*” value is recorded as “Y”.
For `O=C(O)C(O)C1CCCN(c2ncnc3[nH]c4cc(F)ccc4c23)C1` (stereo not drawn) [LL114_0036], the IC50 on SARS-CoV-2 NSP3 Mac1 [1] (setting [4]) came to 34.1 µM. Also, the Ki at SARS-CoV-2 NSP3 Mac1 [1] was 29.7 µM. Also, the 1-BDC at SARS-CoV-2 NSP3 Mac1 [2] (setting [5]) worked out at 0.24; at SARS-CoV-2 NSP3 Mac1 [2] (setting [6]), 0.2. At SARS-CoV-2 NSP3 Mac1 [2] (PanDDA event map), the “1-BDC (PanDDA)” value was 0.24. The “PanDDA hit?” value at SARS-CoV-2 NSP3 Mac1 [2] (setting [8]) and on SARS-CoV-2 NSP3 Mac1 [2] (setting [10]) was “TRUE” each time. In addition, the “Modeled?” value at SARS-CoV-2 NSP3 Mac1 [2] (setting [13]) is recorded as “TRUE”. This compound also came in with a Refined occupancy on SARS-CoV-2 NSP3 Mac1 [2] of 48. Moreover, in the test with SARS-CoV-2 NSP3 Mac1 [3], the “HIT*” value is on record as “Y”.
